Measurements reported in patent US20230373984A1, “CRYSTALLINE FORM I OF MELANOCORTIN RECEPTOR AGONIST COMPOUND AND PREPARATION METHOD THEREFOR” (LG CHEM, LTD., priority 2020, published 2023).
“Also recorded” adds a separate entry of the source.

Legend:
[1] = Stability assessment: storage for 4 weeks, HPLC analysis; assay type: physicochemical; settings: for Stability assessment (HPLC), Open ACC: open state, accelerated condition (40° C., 75% RH); for Stability assessment (HPLC), Closed STR: sealed state, harsh condition, oven at 80° C.
Description: About 10-30 mg of the sample was stored for 4 weeks in an open state under the accelerated condition (40° C., 75% RH) or in a sealed state under the harsh condition in an oven at 80° C.

[2] = as above; assay type: physicochemical; settings: stored at room temperature

Compound: CC(C)C(=O)N([C@H]1C[C@@H](C(=O)N2CCOCC2)N(C(=O)[C@@H]2CN(C(C)(C)C)C[C@H]2c2ccc(Cl)cc2)C1)[C@H]1CC[C@@H](C)CC1.Cl [Example 1, N-((3S, 5S)-1-((3S,4R)-1-(Tert-Butyl)-4-(4-Chlorophenyl) Pyrrolidine-3-Carbonyl)-5-(Morpholine-4-Carbonyl) Pyrrolidin-3-yl)-N-((1s,4R)-4-Methylcyclohexyl) Isobutyramide Hydrochloride]
- Stability assessment (HPLC) ([1]; Initial, in % (unit assumed)): 98.72
- chemical stability (result in words) ([1]; accelerated condition (40° C., 75% RH) and harsh condition (80° C.), 4 weeks, listed as crystalline form I, Hydrochloride): showed chemical stability for 4 weeks; also recorded: exhibited chemical stability for 4 weeks
- Stability assessment (HPLC), Open ACC ([1]; Day 3, in % (unit assumed)): 98.22
- Stability assessment (HPLC), Open ACC ([1]; Week 1, in % (unit assumed)): 98.45
- Stability assessment (HPLC), Open ACC ([1]; Week 2, in % (unit assumed)): 98.40
- Stability assessment (HPLC), Open ACC ([1]; Week 4, in % (unit assumed)): 98.32
- Stability assessment (HPLC), Closed STR ([1]; Day 3, in % (unit assumed)): 97.35
- Stability assessment (HPLC), Closed STR ([1]; Week 1, in % (unit assumed)): 97.28
- Stability assessment (HPLC), Closed STR ([1]; Week 2, in % (unit assumed)): 97.82
- Stability assessment (HPLC), Closed STR ([1]; Week 4, in % (unit assumed)): 97.30
- Stability assessment (HPLC), Closed RT ([2]; Week 2, in % (unit assumed)): 97.99
- Stability assessment (HPLC), Closed RT ([2]; Week 4, in % (unit assumed)): 97.74
